Test results taken from US11242337B2, “Compounds useful for treating gastrointestinal tract disorders” (Ardelyx, Inc., priority 2017, dated 2022).

What was measured:
NHE3 = target: T1, NHE3 (Homo sapiens, UniProt P48764); assay: Cell-based assay of NHE-3 activity (persistent inhibition), human; details: human Persistence, 60 min incubation then washout
T1 construct: expressed in transfected cells
T1 sequence (P48764 26-834): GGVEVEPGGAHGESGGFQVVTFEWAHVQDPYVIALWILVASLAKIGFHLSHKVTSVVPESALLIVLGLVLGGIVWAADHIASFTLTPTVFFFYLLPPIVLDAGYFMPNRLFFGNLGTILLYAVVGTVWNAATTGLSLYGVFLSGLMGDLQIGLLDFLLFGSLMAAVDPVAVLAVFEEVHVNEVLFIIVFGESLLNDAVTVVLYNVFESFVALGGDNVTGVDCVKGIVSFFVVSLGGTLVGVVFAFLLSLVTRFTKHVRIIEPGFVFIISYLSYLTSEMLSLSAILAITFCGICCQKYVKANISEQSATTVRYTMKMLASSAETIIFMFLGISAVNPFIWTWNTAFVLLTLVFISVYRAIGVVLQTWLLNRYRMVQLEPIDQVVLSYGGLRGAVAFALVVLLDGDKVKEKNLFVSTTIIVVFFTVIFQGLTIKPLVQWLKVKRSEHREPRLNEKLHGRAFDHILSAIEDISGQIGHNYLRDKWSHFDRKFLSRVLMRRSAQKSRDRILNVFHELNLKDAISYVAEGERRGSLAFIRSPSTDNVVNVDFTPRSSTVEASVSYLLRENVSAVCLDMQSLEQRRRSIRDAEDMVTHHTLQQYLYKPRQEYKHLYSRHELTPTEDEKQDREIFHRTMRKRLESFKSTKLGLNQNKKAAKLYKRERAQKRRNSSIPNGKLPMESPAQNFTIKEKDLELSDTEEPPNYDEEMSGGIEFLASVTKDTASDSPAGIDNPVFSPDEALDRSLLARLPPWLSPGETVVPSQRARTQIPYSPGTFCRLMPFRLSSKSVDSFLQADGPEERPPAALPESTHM
T1 sequence (Q99653 2-195 partner limits assumed): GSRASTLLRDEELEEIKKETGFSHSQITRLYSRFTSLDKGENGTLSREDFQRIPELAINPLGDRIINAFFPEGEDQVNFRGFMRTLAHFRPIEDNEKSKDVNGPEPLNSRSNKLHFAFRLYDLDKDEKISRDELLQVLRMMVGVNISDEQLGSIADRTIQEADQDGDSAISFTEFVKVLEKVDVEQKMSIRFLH
How it was run: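 PS120 fibroblasts expressing human NHE3 with NHERF2 exposed to 0-30 μM compound for 60 min at RT, then washed out; cells acid-loaded by NH4Cl prepulse with BCECF-AM and Na+-free buffer. Na+-driven pH recovery started 10 min post-washout; initial rate of BCECF ratio change (FLIPR) taken as activity.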

[1] = test system: human ileum monolayer culture; assay: Sustained inhibition of apical acid secretion in human organoid monolayer cell cultures (ileum); assay type: cell-based; details: Homo sapiens, 48 h; 1 μM apical, dosed day 6, apical media pH day 8, vs DMSO
How it was run: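 Human ileum organoid-derived Transwell monolayers, differentiated with ENRA from day 3, received 1 μM compound apically on day 6 (DMSO vehicle, duplicate wells). Apical medium pH was measured by electrode on day 8 as a readout of sustained NHE3-mediated proton secretion inhibition.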

| % inhibition (NHE3) | pIC50 (NHE3) | IC50 (NHE3) [nM] | SMILES | inhibition at 1 µM [1] [%] |
| --- | --- | --- | --- | --- |
| C (>70%) | C (NHE3 pIC50 > 7) |  | N#Cc1cc(Cl)cc2c1C[C@H](N1CCNCC1)[C@H]2Oc1ccc(S(=O)(=O)N[C@H]2CCN(CCOCCNC(=O)NCCCCNC(=O)NCCOCCN3CC[C@H](NS(=O)(=O)c4ccc(O[C@H]5c6cc(Cl)cc(C#N)c6C[C@@H]5N5CCNCC5)c(F)c4)C3)C2)cc1F [Example 110, 4-([(1S,2S)-6-Chloro-4-cyano-2-(piperazin-1-yl)-2,3-dihydro-1H-inden-1-yl]oxy)-N—[(S)-1-(20-[(S)-3-[(4-([(1S,2S)-6-chloro-4-cyano-2-(piperazin-1-yl)-2,3-dihydro-1H-inden-1-yl]oxy)-3-fluorophenyl)sulfonamide)pyrrolidin-1-yl]-7,14-dioxo-3,18-dioxa-6,8,13,15-tetraazaicosyl)pyrrolidin-3-yl]-3-fluorobenzenesulfonamide; tetra(trifluoroacetate)] | > 70 |
| C (>70%) | C (NHE3 pIC50 > 7) |  | N#Cc1cc(Cl)cc2c1C[C@H](N1CCNCC1)[C@H]2Oc1ccc(S(=O)(=O)NC2CCN(C(=O)CCCNC(=O)NCCCCNC(=O)NCCCC(=O)N3CCC(NS(=O)(=O)c4ccc(O[C@H]5c6cc(Cl)cc(C#N)c6C[C@@H]5N5CCNCC5)cc4)CC3)CC2)cc1 [Example 115] | > 70 |
| C (>70%) | C (NHE3 pIC50 > 7) |  | CN(C)[C@H]1CCCN([C@H]2Cc3c(C#N)cc(Cl)cc3[C@@H]2Oc2ccc(S(=O)(=O)NCCOCCOCCNC(=O)NCCCCNC(=O)NCCOCCOCCNS(=O)(=O)c3ccc(O[C@H]4c5cc(Cl)cc(C#N)c5C[C@@H]4N4CCC[C@H](N(C)C)C4)cc3)cc2)C1 [Example 122, 4-([(1S,2S)-6-Chloro-4-cyano-2-[(S)-3-(dimethylamino)piperidin-1-yl]-2,3-dihydro-1H-inden-1-yl]oxy)-N-[26-([4-([(1S,2S)-6-chloro-4-cyano-2-[(S)-3-(dimethylamino)piperidin-1-yl]-2,3-dihydro-1H-inden-1-yl]oxy)phenyl]sulfonamido)-10,17-dioxo-3,6,21,24-tetraoxa-9,11,16,18-tetraazahexacosyl]benzenesulfonamide] | > 70 |
| C (>70%) | C (NHE3 pIC50 > 7) |  | N#Cc1cc(Cl)cc2c1C[C@H](N1CCNCC1)[C@H]2Oc1ccc(S(=O)(=O)NC2CCN(CCOCCNC(=O)NCCCCNC(=O)NCCOCCN3CCC(NS(=O)(=O)c4ccc(O[C@H]5c6cc(Cl)cc(C#N)c6C[C@@H]5N5CCNCC5)cc4)CC3)CC2)cc1 [Example 123, 4-([(1S,2S)-6-Chloro-4-cyano-2-(piperazin-1-yl)-2,3-dihydro-1H-inden-1-yl]oxy)-N-[1-(20-[4-([4-([(1S,2S)-6-chloro-4-cyano-2-(piperazin-1-yl)-2,3-dihydro-1H-inden-1-yl]oxy)phenyl]sulfonamide]piperidin-1-yl)-7,14-dioxo-3,18-dioxa-6,8,13,15-tetraazaicosyl]piperidin-4-yl)benzenesulfonamide] | > 70 |
| B (40-70%) |  | < 100 | N#Cc1cc(Cl)cc2c1C[C@H](N1CCCNCC1)[C@H]2Oc1ccc(S(=O)(=O)N[C@H]2CCN(CCOCCNC(=O)NCCCCNC(=O)NCCOCCN3CC[C@H](NS(=O)(=O)c4ccc(O[C@H]5c6cc(Cl)cc(C#N)c6C[C@@H]5N5CCCNCC5)cc4)C3)C2)cc1 [Example 126, 4-([(1S,2S)-6-Chloro-4-cyano-2-(1,4-diazepan-1-yl)-2,3-dihydro-1H-inden-1-yl]oxy)-N—[(S)-1-(20-[(S)-3-([4-([(1S,2S)-6-chloro-4-cyano-2-(1,4-diazepan-1-yl)-2,3-dihydro-1H-inden-1-yl]oxy)phenyl]sulfonamido)pyrrolidin-1-yl]-7,14-dioxo-3,18-dioxa-6,8,13,15-tetraazaicosyl)pyrrolidin-3-yl]benzenesulfonamide] | < 50 |

Second part, the compound before the results:

| SMILES | % inhibition (NHE3) | pIC50 (NHE3) | IC50 (NHE3) [nM] | inhibition at 1 µM [1] [%] |
| --- | --- | --- | --- | --- |
| O=C(NCCCCNC(=O)NCCOCCN1CC[C@H](NS(=O)(=O)c2ccc(O[C@H]3c4cc(Cl)cc(Cl)c4C[C@@H]3N3CCNCC3)c(F)c2)C1)NCCOCCN1CC[C@H](NS(=O)(=O)c2ccc(O[C@H]3c4cc(Cl)cc(Cl)c4C[C@@H]3N3CCNCC3)c(F)c2)C1 [Example 106, 4-([(1S,2S)-4,6-Dichloro-2-(piperazin-1-yl)-2,3-dihydro-1H-inden-1-yl]oxy)-N—[(S)-1-(20-[(S)-3-([4-([(1S,2S)-4,6-dichloro-2-(piperazin-1-yl)-2,3-dihydro-1H-inden-1-yl]oxy)-3-fluorophenyl]sulfonamido)pyrrolidin-1-yl]-7,14-dioxo-3,18-dioxa-6,8,13,15-tetraazaicosyl)pyrrolidin-3-yl]-3-fluorobenzenesulfonamide; tetra(trifluoroacetate)] | C (>70%) |  |  | > 70 |
| N#Cc1cc(Cl)cc2c1C[C@H](N1CCNCC1)[C@H]2Oc1ccc(S(=O)(=O)N[C@H]2CCN(CCOCCNC(=O)NCCCCNC(=O)NCCOCCN3CC[C@H](NS(=O)(=O)c4ccc(O[C@H]5c6cc(Cl)cc(C#N)c6C[C@@H]5N5CCNCC5)cc4)C3)C2)cc1 [Example 107, 4-([(1S,2S)-6-Chloro-4-cyano-2-(piperazin-1-yl)-2,3-dihydro-1H-inden-1-yl]oxy)-N—[(S)-1-(20-[(S)-3-([4-([(1S,2S)-6-chloro-4-cyano-2-(piperazin-1-yl)-2,3-dihydro-1H-inden-1-yl]oxy)phenyl]sulfonamido)pyrrolidin-1-yl]-7,14-dioxo-3,18-dioxa-6,8,13,15-tetraazaicosyl)pyrrolidin-3-yl]benzenesulfonamide; tetra(trifluoroacetate)] | C (>70%) | C (NHE3 pIC50 > 7) |  | > 70 |
| N#Cc1cc(Cl)cc2c1C[C@H](N1CCNCC1)[C@H]2Oc1ccc(S(=O)(=O)N[C@@H]2CCN(CCOCCNC(=O)NCCCCNC(=O)NCCOCCN3CC[C@@H](NS(=O)(=O)c4ccc(O[C@H]5c6cc(Cl)cc(C#N)c6C[C@@H]5N5CCNCC5)c(F)c4)C3)C2)cc1F [Example 109, 4-([(1S,2S)-6-Chloro-4-cyano-2-(piperazin-1-yl)-2,3-dihydro-1H-inden-1-yl]oxy)-N—[(R)-1-(20-[(R)-3-[(4-([(1S,2S)-6-chloro-4-cyano-2-(piperazin-1-yl)-2,3-dihydro-1H-inden-1-yl]oxy)-3-fluorophenyl)sulfonamide)pyrrolidin-1-yl]-7,14-dioxo-3,18-dioxa-6,8,13,15-tetraazaicosyl)pyrrolidin-3-yl]-3-fluorobenzenesulfonamide; tetra(trifluoroacetate)] | C (>70%) | C (NHE3 pIC50 > 7) |  | > 70 |
